Laboratory results: US7973164B2, “Quinoline derivatives” (AstraZeneca AB, priority 2006, dated 2011)

Tests used:
[1] = target: T1, PDGFRβ (Homo sapiens, UniProt P09619); experiment: Test (b) in vitro phospho-Tyr751 PDGFRβ ELISA assay in MG63 osteosarcoma cells; format: cell-based; conditions: MG63 osteosarcoma cells stimulated with PDGFBB, read-out: IC50 versus phospho-Tyr751 formation in PDGFRβ
T1 construct: endogenous in cells; host or cells: MG63 osteosarcoma cells (ATCC)
Method: (b) In Vitro Phospho-Tyr751 PDGFRβ ELISA Assay
This assay uses a conventional ELISA method to determine the ability of test compounds to inhibit phosphorylation of tyrosine in PDGFRβ.
Aliquots (100 μl) of culture media were placed in the outer wells to minimise edge effects. The cells were incubated overnight at 37° C. with 7.5% CO2 to allow the cells to adhere to the wells.
Aliquots (3 μl) of each compound concentration were added to test medium (300 μl) to create a second dilution range. Aliquots (16 μl) of each resultant compound concentration were added to the cells in each well. “Maximum” control cells received a dilution of DMSO plus test medium only. “Minimum” control cells received a reference PDGFR inhibitor (16 μl). The cells were incubated for 90 minutes at 37° C. with 7.5% CO2.
The resultant cells were stimulated with PDGFBB using the following procedure. A lyophilised powder of PDGFBB, (Sigma-Aldrich; Catalogue No. P4306) was mixed with sterile water to provide a stock solution of 10 μg/ml of PDGFBB. […] Aliquots thereof (44 μl) were added to compound treated cells and to the “Maximum” control cells. The “Minimum” control cells received medium only. The cells were incubated at 37° C. with 7.5% CO2 for 5 minutes. […] The resultant tissue culture plates were shaken for 5 minutes at ambient temperature to ensure full lysis and then frozen at −20° C. until required.
Aliquots (50 μl) were added to each well and the plates were placed at 4° C. for 16 hours. The wells were washed 5 times (1 minute soak each time) with 300 μl per well of PBST. The wells were treated with 50 μl of 3% BSA in PBST at ambient temperature for 1 hour and subsequently washed twice with 300 μl per well of PBST.
The tissue culture plates with frozen cell lysate were allowed to warm to 0° C. Aliquots (50 μl) of the MG63 cell lysate were added to the ELISA plates. Each sample was duplicated on separate plates. The ELISA plates were agitated at ambient temperature for 2 hours. The wells were washed twice with 300 μl per well of PBST. […] Aliquots (50 μl) of the antibody solutions were added to each of the wells. The plates were agitated at ambient temperature for 1 hour. The plates were washed twice with 300 μl per well of PBST. […] Aliquots (50 μl) of the resultant dilution were added to each well and the plates were agitated at ambient temperature for 1 hour. The plates were washed 5 times with 300 μl per well of PBST. […] Aliquots (50 μl) of chemiluminescent substrate solution were added to each of the wells, the plates were agitated for 2 minutes and luminescence was read on a SpectraFluor Plus plate reader (Tecan UK Ltd., Reading, Berkshire, UK). Analysis for each of the compounds was completed by determining a ratio of the ‘phospho antibody’ plate reading to the ‘total antibody’ plate reading for each test sample and these ratios were plotted to determine the IC50 value of each test compound.

[2] = target: T2, KDR (VEGFR2) (Homo sapiens, UniProt P35968); experiment: Test (c) in vitro phospho-KDR ELISA assay in HUVECs; format: cell-based; conditions: HUVECs stimulated with VEGF, read-out: IC50 versus phospho-tyrosine formation in KDR
T2 construct: phosphorylation of KDR expressed in human umbilical vein endothelial cells (HUVECs); host or cells: HUVECs
Method: (c) In Vitro Phospho-KDR ELISA Assay
This assay uses a conventional ELISA method to determine the ability of test compounds to inhibit phosphorylation of tyrosine in KDR (VEGFR2).
The cells were incubated overnight at 37° C. with 7.5% CO2 to allow adherence to the well surface. […] The plates were incubated at 37° C. for 2.5 hours.
Test compounds were prepared as 10 mM stock solutions in DMSO and serially diluted with DMSO as required. Aliquots (3 μl) of each concentration of test compound were diluted with ‘serum fiee medium’ (300 μl). Aliquots (50 μl) of each resultant compound concentration were added to the cells in each well. […] The cells were incubated for 90 minutes at 37° C. with 7.5% CO2.
The resultant cells were stimulated with VEGF using the following procedure. A lyopliilised powder of VEGF (Sigma-Aldrich; Catalogue No. V7259) was mixed with PBS containing 0.1% filter-sterilised BSA (0.1% BSA/PBS) to provide a stock solution of 10 μg/ml of VEGF. A dilution of this stock solution into ‘serum free medium’ provided a 1000 ng/ml VEGF solution. Aliquots thereof (50 μl) were added to all wells. The cells were incubated at 37° C. with 7.5% CO2 for 5 minutes. […] The resultant tissue culture plates were shaken for 5 minutes at ambient temperature to ensure full lysis before being frozen on dry-ice and stored at −20° C. until required.
The antibody was diluted in PBS to a concentration of 8 μg/ml, aliquots (100 μl) were added to each well and the plates were stored at ambient temperature for 16 hours. The wells were washed 3 times (1 minute soak each time) with 300 μl per well of PBST. The wells were treated with PBS containing 1% filter-sterilised BSA (1% BSA/PBS; 200 μl) at ambient temperature for 1 hour and subsequently washed 3 times with 300 μl per well of PBST.
The tissue culture plates with frozen cell lysate were allowed to warm to 0° C. Aliquots (100 μl) of the HUVEC cell lysate were added and the ELISA plates were agitated at ambient temperature for 3 hours. The wells were washed 3 times with 300 μl per well of PBST. […] Aliquots (100 μl) of the resultant dilution were added to each well and the plates were agitated at ambient temperature for 2 hours. The plates were washed 4 times with 300 μl per well of PBST. […] Aliquots (50 μl) of chemiluminescent substrate solution were added to each of the wells, the plates were agitated for 2 minutes and luminescence was read on a SpectraFluor is Plus plate reader (Tecan UK Ltd.). The resultant data were analysed to determine the IC50 value of each test compound.

[3] = tested on: dermatofibrosarcoma protruberans cell cultures; conditions: Cancer Research 2001; cited from earlier work
[4] = tested on: PDGF receptor kinase; conditions: literature (Nature Reviews 2002; Cancer Research 1996); cited from earlier work
[5] = tested on: human glioblastoma lines U343 and U87; conditions: U343 and U87 injected into the brains of nude mice; Cancer Research 2000; cited from earlier work

T1 sequence (P09619 33-1106): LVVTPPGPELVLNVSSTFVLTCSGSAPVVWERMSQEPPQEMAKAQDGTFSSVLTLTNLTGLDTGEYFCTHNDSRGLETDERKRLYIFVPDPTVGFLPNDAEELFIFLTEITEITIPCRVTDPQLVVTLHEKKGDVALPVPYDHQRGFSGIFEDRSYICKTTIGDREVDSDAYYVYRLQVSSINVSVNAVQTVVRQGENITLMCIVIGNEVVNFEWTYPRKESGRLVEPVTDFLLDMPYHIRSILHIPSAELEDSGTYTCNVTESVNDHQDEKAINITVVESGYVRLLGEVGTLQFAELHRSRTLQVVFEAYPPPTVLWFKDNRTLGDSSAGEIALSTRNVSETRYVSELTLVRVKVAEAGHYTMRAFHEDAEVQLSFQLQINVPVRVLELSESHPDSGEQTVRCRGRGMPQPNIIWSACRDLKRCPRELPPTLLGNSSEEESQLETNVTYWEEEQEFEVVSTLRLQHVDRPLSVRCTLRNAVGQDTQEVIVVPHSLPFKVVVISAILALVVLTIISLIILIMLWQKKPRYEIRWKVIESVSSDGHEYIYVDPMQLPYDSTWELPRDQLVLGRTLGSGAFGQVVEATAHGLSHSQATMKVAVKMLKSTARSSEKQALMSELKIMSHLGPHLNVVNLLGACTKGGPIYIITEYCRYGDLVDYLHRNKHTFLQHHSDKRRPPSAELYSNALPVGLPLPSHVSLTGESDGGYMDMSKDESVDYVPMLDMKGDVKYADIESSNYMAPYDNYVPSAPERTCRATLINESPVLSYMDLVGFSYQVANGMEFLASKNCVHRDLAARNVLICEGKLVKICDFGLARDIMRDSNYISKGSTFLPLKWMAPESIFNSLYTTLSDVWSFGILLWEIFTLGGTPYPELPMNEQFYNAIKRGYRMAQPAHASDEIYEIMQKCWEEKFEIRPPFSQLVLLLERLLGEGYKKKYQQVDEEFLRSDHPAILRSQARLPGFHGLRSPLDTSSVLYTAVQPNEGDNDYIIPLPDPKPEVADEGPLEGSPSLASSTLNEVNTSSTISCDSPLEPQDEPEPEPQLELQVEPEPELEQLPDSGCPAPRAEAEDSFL
T2 sequence (P35968 20-1356): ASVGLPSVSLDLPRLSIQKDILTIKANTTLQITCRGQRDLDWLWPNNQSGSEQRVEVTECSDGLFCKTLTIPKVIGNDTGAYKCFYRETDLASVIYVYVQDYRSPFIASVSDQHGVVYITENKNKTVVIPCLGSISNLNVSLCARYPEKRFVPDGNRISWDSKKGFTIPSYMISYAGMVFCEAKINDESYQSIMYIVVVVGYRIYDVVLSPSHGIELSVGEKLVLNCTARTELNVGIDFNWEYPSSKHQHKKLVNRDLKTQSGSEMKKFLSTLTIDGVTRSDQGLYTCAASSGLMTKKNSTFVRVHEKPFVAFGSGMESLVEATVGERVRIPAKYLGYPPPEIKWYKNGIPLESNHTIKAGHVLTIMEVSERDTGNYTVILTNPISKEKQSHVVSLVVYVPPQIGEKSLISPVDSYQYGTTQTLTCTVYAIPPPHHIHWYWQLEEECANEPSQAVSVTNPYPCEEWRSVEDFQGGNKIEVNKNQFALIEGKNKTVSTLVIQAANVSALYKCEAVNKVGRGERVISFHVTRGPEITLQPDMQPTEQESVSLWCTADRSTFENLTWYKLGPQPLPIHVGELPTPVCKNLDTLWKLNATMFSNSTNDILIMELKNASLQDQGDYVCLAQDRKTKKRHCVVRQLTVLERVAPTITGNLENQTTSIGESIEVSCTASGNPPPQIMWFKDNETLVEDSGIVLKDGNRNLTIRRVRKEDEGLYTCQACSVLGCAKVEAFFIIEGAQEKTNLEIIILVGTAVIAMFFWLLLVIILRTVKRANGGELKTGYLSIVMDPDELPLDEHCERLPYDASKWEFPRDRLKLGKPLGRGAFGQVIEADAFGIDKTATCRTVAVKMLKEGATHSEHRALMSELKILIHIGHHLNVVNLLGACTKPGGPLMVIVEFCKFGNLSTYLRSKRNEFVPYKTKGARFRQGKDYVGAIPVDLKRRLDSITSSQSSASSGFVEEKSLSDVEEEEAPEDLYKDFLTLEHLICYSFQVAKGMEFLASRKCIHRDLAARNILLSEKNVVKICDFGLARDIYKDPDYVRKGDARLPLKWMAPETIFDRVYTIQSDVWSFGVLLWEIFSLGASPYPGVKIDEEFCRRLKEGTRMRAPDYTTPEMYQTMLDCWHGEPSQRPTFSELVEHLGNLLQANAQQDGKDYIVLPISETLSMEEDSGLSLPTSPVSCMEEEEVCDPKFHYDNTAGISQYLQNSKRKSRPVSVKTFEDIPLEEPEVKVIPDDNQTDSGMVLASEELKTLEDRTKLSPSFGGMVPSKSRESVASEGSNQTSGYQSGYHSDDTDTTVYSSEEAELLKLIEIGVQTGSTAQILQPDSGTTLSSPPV

SMILES | IC50 [1] | IC50 [2] | inhibition of in vivo growth of dermatofibrosarcoma protruberans cell cultures [3] | inhibition of PDGF receptor kinase activity [4] | inhibition of growth of glioblastoma tumours [5]
COc1cc(Oc2ccnc3ccc(F)cc23)ccc1CC(=O)Nc1cc(C)[nH]n1 [N-(5-methyl-1H-pyrazol-3-yl)-2-[4-(6-fluoroquinolin-4-yloxy)-2-methoxyphenyl]acetamide] | ~10 nM | > 2000 nM |  |  | 
Cc1ccc(NC(=O)c2ccc(CN3CCN(C)CC3)cc2)cc1Nc1nccc(-c2cccnc2)n1 [imatinib] |  |  | inhibits the in vivo growth of dermatofibrosarcoma protruberans cell cultures | shown to inhibit PDGF receptor kinase activity | inhibits the growth of glioblastoma tumours
COc1cc(Oc2ccnc3ccc(F)cc23)ccc1CC(=O)Nc1n[nH]c(C)c1C [N-(4,5-dimethyl-1H-pyrazol-3-yl)-2-[4-(6-fluoroquinolin-4-yloxy)-2-methoxyphenyl]acetamide] | ~10 nM | > 2000 nM |  |  | 
CCn1cc(NC(=O)Cc2ccc(Oc3ccnc4cc(OC)c(C(=O)N(C)C)cc34)cc2)cn1 [N-(1-ethyl-1H-pyrazol-4-yl)-2-{4-[6-(N,N-dimethylcarbamoyl)-7-methoxyquinolin-4-yloxy]phenyl}acetamide] | ~3 nM | ~700 nM |  |  | 
CCn1cc(NC(=O)Cc2ccc(Oc3ccnc4cc(OC)c(C#N)cc34)cc2OC)cn1 [N-(1-ethyl-1H-pyrazol-4-yl)-2-[4-(6-cyano-7-methoxyquinolin-4-yloxy)-2-methoxyphenyl]acetamide] | ~2 nM | ~750 nM |  |  | 
CCc1c[nH]nc1NC(=O)Cc1ccc(Oc2ccnc3cc(OC)c(OC)cc23)cc1OC [N-(4-ethyl-1H-pyrazol-3-yl)-2-[4-(6,7-dimethoxyquinolin-4-yloxy)-2-methoxyphenyl]acetamide] | ~5 nM | > 2000 nM |  |  | 

The remaining compounds from weak to strong by IC50 [1], led by results:

IC50 [1] | IC50 [2] | SMILES | inhibition of in vivo growth of dermatofibrosarcoma protruberans cell cultures [3] | inhibition of PDGF receptor kinase activity [4] | inhibition of growth of glioblastoma tumours [5]
~20 nM | > 1000 nM | CCn1cc(NC(=O)Cc2ccc(Oc3ccnc4ccccc34)cc2OC)cn1 [N-(1-ethyl-1H-pyrazol-4-yl)-2-(2-methoxy-4-quinolin-4-yloxyphenyl)acetamide] |  |  | 
~5 nM | ~1000 nM | CNC(=O)c1cc2c(Oc3ccc(CC(=O)Nc4noc(C)c4C)c(OC)c3)ccnc2cc1OC [N-(4,5-dimethylisoxazol-3-yl)-2-{2-methoxy-4-[7-methoxy-6-(N-methylcarbamoyl)quinolin-4-yloxy]phenyl}acetamide] |  |  | 
~2 nM | ~200 nM | CCn1cc(NC(=O)Cc2ccc(Oc3ccnc4cc(OC)c(C#N)cc34)cc2)cn1 [N-(1-ethyl-1H-pyrazol-4-yl)-2-[4-(6-cyano-7-methoxyquinolin-4-yloxy)phenyl]acetamide] |  |  | 
